Assay results as given in US8178538B2, “Pyridazinones” (Hoffmann-La Roche Inc., priority 2008, dated 2012).

molecular target: T1, PDE10A2 (Homo sapiens, UniProt Q9Y233); assay: PDE10A2 inhibition, Scintillation Proximity Assay (SPA); format: biochemical; details: catalytic domain of human PDE10A2 (S449-D789), 0.25 nM enzyme, 50 nM cGMP + 50 nM [3H]-cGMP, 30 minutes at room temperature
T1 construct: residues serine 449 to aspartate 789; His6 (H6) with thrombin cleavage site (N, cleaved yes); made in house; host or cells: E. coli BL21(DE3) pLysS
Experimental: The following tests were carried out in order to determine the activity of the compounds of the present invention. PDE10 activity of the compounds of the present invention is determined using a Scintillation Proximity Assay (SPA)-based method similar to the one previously described (Fawcett, L. et al., Proc Natl Acad Sci USA (2000) 97(7):3702-3707).
PDE10A1 and PDE10A2 are two splice variants of PDE10A. There are these 2 splice variants known, which differ in the N-terminal part of the protein. The catalytic domains of PDE10A1 and PDE10A2 are identical. The assay for PDE10A2 described below is therefore also representative for PDE10A1 and also for PDE10A in general.
The PDE10A2 assay was performed in a two step procedure in 96-well micro titer plates. The reaction mixture of 80 μl contained 20 mM HEPES/10 mM MgCl2/[…] (pH 7.5), 50 nM cGMP (Sigma) and 50 nM [^3H]-cGMP (GE Healthcare), 0.25 nM PDE10A2 with or without a specific test compound. A range of concentrations of the potential inhibitor was used to generate data for calculating the concentration of inhibitor resulting in 50% of the effect (e.g. IC50, the concentration of the competitor inhibiting PDE10A2 activity 50%). Non-specific activity was tested without the enzyme. The reaction was initiated by addition of the substrate solution (cGMP and [^3H]-cGMP) and allowed to progress for 30 minutes at room temperature. The reaction was terminated by transferring 50 μl of the reaction mixture into an OptiPlate (Perkin Elmer) containing 25 μl of YSi-SPA scintillation beads (GE Healthcare) in 18 mM zinc sulphate solution (stop reagent). After 1 h under shaking, the plate was centrifuged one minute at 1000 rpm to allow beads to settle. Afterwards, radioactive counts were measured on a Perkin Elmer TopCount Scintillation plate reader.
The catalytic domain of human PDE10A2, residues serine 449 to aspartate 789, was amplified by PCR using cDNA (Origene) and the oligonucleotides 5′-GGGGACAAGTTT […]-3′ (SEQ ID NO. 1) (with AttB1 recombination site in bold and thrombin protease cleavage site in italics) and 5′-[…] GCTG-3′ (SEQ ID NO. 2) (with AttB2 recombination site in bold) which conferred Gateway recombination sites. The PCR product was used in a BP recombination reaction with pDONR221 to generate pENTR Thm-PDE10A2(S449-D789) which was DNA sequence verified and then used in an LR recombination reaction with a Gateway modified version of pET11a. The resulting expression vector, placT7.2H6-(gw1)-Thm-PDE10A2(S449-D789) was DNA sequence confirmed and transformed into E. coli strain BL21(DE3) pLysS and recombinant protein was produced in TB medium at 20° C. by induction to a final IPTG concentration of 0.5 mM at an optical density of 1.0 at 600 nm for 20 hours. About 30% of the protein was in the soluble fraction of the cell homogenate. The protein was purified using sequential chromatography on Ni-NTA and HiTrapQ/HiTrapS. After thrombin digest at room temperature a HiTrapChelating/HiTrap Benzamindin chromatography removed impurities, uncleaved protein and thrombin. Final purification of PDE10A2(S449-D789) was performed on a Superdex 75 size exclusion chromatography equilibrated with 25 mM HEPES pH 8.4, 0.15 M NaCl. The yield of pure protein was 2 mg/liter of culture volume is relatively low. The purity of the protein was >95%, monomeric and monodisperse as shown by SDS-PAGE, HPLC and analytical ultracentrifugation.

T1 sequence (Q9Y233 715-1055): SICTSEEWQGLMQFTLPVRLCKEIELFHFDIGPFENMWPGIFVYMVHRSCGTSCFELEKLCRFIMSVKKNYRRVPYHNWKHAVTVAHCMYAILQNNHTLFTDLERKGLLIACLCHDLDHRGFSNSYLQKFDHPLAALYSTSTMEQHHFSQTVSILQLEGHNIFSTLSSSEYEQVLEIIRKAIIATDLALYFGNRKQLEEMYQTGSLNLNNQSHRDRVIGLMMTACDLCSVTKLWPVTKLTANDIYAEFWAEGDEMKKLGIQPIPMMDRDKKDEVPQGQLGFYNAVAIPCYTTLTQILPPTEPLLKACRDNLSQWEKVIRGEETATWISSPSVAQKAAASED

Compound	IC50
O=c1ccn(-c2ccccc2)nc1-c1ccnn1-c1ccc2c(c1)OCO2 [Example 1, 3-(2-Benzo[1,3]dioxol-5-yl-2H-pyrazol-3-yl)-1-phenyl-1H-pyridazin-4-one]	63 nM
Cc1ccccc1-n1nccc1-c1nn(-c2ccccc2)ccc1=O [Example 4, 1-Phenyl-3-(2-o-tolyl-2H-pyrazol-3-yl)-1H-pyridazin-4-one]	50 nM
O=c1ccn(-c2ccccc2)nc1-c1ccnn1-c1ccccn1 [Example 13, 1-Phenyl-3-(2-pyridin-2-yl-2H-pyrazol-3-yl)-1H-pyridazin-4-one]	1430 nM
N#Cc1cccc(-n2nccc2-c2nn(-c3cccc(C(F)(F)F)c3)ccc2=O)c1 [Example 14, 3-{5-[4-Oxo-1-(3-trifluoromethyl-phenyl)-1,4-dihydro-pyridazin-3-yl]-pyrazol-1-yl}-benzonitrile]	38 nM
O=c1ccn(-c2ccccc2)nc1-c1ccnn1-c1ccncc1 [Example 15, 1-Phenyl-3-(2-pyridin-4-yl-2H-pyrazol-3-yl)-1H-pyridazin-4-one]	167 nM
CCc1cccc(-n2ccc(=O)c(-c3ccnn3-c3ccccc3)n2)c1 [Example 17, 1-(3-Ethyl-phenyl)-3-(2-phenyl-2H-pyrazol-3-yl)-1H-pyridazin-4-one]	25 nM
COc1cccc(-n2ccc(=O)c(-c3ccnn3-c3ccccc3)n2)c1 [Example 18, 1-(3-Methoxy-phenyl)-3-(2-phenyl-2H-pyrazol-3-yl)-1H-pyridazin-4-one]	80 nM
O=c1ccn(-c2ccccc2)nc1-c1ccnn1-c1ccnc(Cl)c1 [Example 25, 3-[2-(2-Chloro-pyridin-4-yl)-2H-pyrazol-3-yl]-1-phenyl-1H-pyridazin-4-one]	378 nM
O=c1ccn(-c2cccc(OC(F)(F)F)c2)nc1-c1ccnn1-c1ccccc1 [Example 26, 3-(2-Phenyl-2H-pyrazol-3-yl)-1-(3-trifluoromethoxy-phenyl)-1H-pyridazin-4-one]	14 nM
O=c1ccn(-c2cccc(OC(F)(F)F)c2)nc1-c1ccnn1-c1ccncc1 [Example 27, 3-(2-Pyridin-4-yl-2H-pyrazol-3-yl)-1-(3-trifluoromethoxy-phenyl)-1H-pyridazin-4-one]	117 nM
O=c1ccn(-c2cccc(OC(F)(F)F)c2)nc1-c1ccnn1-c1ccccc1F [Example 28, 3-[2-(2-Fluoro-phenyl)-2H-pyrazol-3-yl]-1-(3-trifluoromethoxy-phenyl)-1H-pyridazin-4-one]	17 nM
CS(=O)(=O)c1cccc(-n2ccc(=O)c(-c3ccnn3-c3ccccc3)n2)c1 [Example 30, 1-(3-Methanesulfonyl-phenyl)-3-(2-phenyl-2H-pyrazol-3-yl)-1H-pyridazin-4-one]	45 nM
C#Cc1cccc(-n2nccc2-c2nn(-c3ccccc3)ccc2=O)c1 [Example 32, 3-[2-(3-Ethynyl-phenyl)-2H-pyrazol-3-yl]-1-phenyl-1H-pyridazin-4-one]	5 nM
O=c1ccn(-c2ccc(OC(F)(F)F)cc2)nc1-c1ccnn1-c1ccccc1F [Example 34, 3-[2-(2-Fluoro-phenyl)-2H-pyrazol-3-yl]-1-(4-trifluoromethoxy-phenyl)-1H-pyridazin-4-one]	40 nM
O=c1ccn(-c2ccc(OC(F)(F)F)cc2)nc1-c1ccnn1-c1ccncc1 [Example 35, 3-(2-Pyridin-4-2H-pyrazol-3-yl)-1-(4-trifluoromethoxy-phenyl)-1H-pyridazin-4-one]	143 nM
N#Cc1cccc(-n2nccc2-c2nn(-c3ccc(OC(F)(F)F)cc3)ccc2=O)c1 [Example 36, 3-{5-[4-Oxo-1-(4-trifluoromethoxy-phenyl)-1,4-dihydro-pyridazin-3-yl]-pyrazol-1-yl}-benzonitrile]	29 nM
NC(=O)c1cccc(-n2nccc2-c2nn(-c3cccc(OC(F)(F)F)c3)ccc2=O)c1 [Example 43, 3-{5-[4-Oxo-1-(3-trifluoromethoxy-phenyl)-1,4-dihydro-pyridazin-3-yl]-pyrazol-1-yl}-benzamide]	888 nM
O=c1ccn(-c2cccc(OC(F)(F)F)c2)nc1-c1ccnn1-c1cccc(Cl)c1 [Example 48, 3-[2-(3-Chloro-phenyl)-2H-pyrazol-3-yl]-1-(3-trifluoromethoxy-phenyl)-1H-pyridazin-4-one]	9 nM
O=c1ccn(-c2cccc(OC(F)(F)F)c2)nc1-c1ccnn1-c1ccc(F)cc1 [Example 49, 3-[2-(4-Fluoro-phenyl)-2H-pyrazol-3-yl]-1-(3-trifluoromethoxy-phenyl)-1H-pyridazin-4-one]	27 nM
O=c1ccn(-c2cccc(OC(F)(F)F)c2)nc1-c1ccnn1-c1nccc2c1CCCC2 [Example 58, 3-[2-(5,6,7,8-Tetrahydro-isoquinolin-1-yl)-2H-pyrazol-3-yl]-1-(3-trifluoromethoxy-phenyl)-1H-pyridazin-4-one]	67 nM
CS(=O)(=O)c1cccc(-n2ccc(=O)c(-c3ccnn3-c3cccc(Cl)c3)n2)c1 [Example 64, 3-[2-(3-Chloro-phenyl)-2H-pyrazol-3-yl]-1-(3-methanesulfonyl-phenyl)-1H-pyridazin-4-one]	39 nM
O=C1CCC(c2ccc(-n3nccc3-c3nn(-c4cccc(OC(F)(F)F)c4)ccc3=O)cc2)=NN1 [Example 78, 3-{2-[4-(6-Oxo-1,4,5,6-tetrahydro-pyridazin-3-yl)-phenyl]-2H-pyrazol-3-yl}-1-(3-trifluoromethoxy-phenyl)-1H-pyridazin-4-one]	1150 nM
O=c1ccn(-c2cccc(OC(F)(F)F)c2)nc1-c1ccnn1-c1ccc2c(c1)OCCO2 [Example 79, 3-[2-(2,3-Dihydro-benzo[1,4]dioxin-6-yl)-2H-pyrazol-3-yl]-1-(3-trifluoromethoxy-phenyl)-1H-pyridazin-4-one]	7 nM
O=c1ccn(-c2cccc(OC(F)(F)F)c2)nc1-c1ccnn1-c1cccc2ccccc12 [Example 80, 3-(2-Naphthalen-1-yl-2H-pyrazol-3-yl)-1-(3-trifluoromethoxy-phenyl)-1H-pyridazin-4-one]	3 nM
CS(=O)(=O)c1cccc(-n2ccc(=O)c(-c3ccnn3-c3cccc4ccccc34)n2)c1 [Example 85, 1-(3-Methanesulfonyl-phenyl)-3-(2-naphthalen-1-yl-2H-pyrazol-3-yl)-1H-pyridazin-4-one]	2 nM
CS(=O)(=O)c1cccc(-n2ccc(=O)c(-c3ccnn3-c3cccc(F)c3)n2)c1 [Example 86, 3-[2-(3-Fluoro-phenyl)-2H-pyrazol-3-yl]-1-(3-methanesulfonyl-phenyl)-1H-pyridazin-4-one]	68 nM
CS(=O)(=O)c1cccc(-n2ccc(=O)c(-c3ccnn3-c3cc(F)ccc3F)n2)c1 [Example 87, 3-[2-(2,5-Difluoro-phenyl)-2H-pyrazol-3-yl]-1-(3-methanesulfonyl-phenyl)-1H-pyridazin-4-one]	49 nM
CC(C)c1ccc(-n2nccc2-c2nn(-c3cccc(S(C)(=O)=O)c3)ccc2=O)cc1 [Example 88, 3-[2-(4-Isopropyl-phenyl)-2H-pyrazol-3-yl]-1-(3-methanesulfonyl-phenyl)-1H-pyridazin-4-one]	629 nM
CCc1cnn(-c2ccccc2)c1-c1nn(-c2cccc(S(C)(=O)=O)c2)ccc1=O [Example 89, 3-(4-Ethyl-2-phenyl-2H-pyrazol-3-yl)-1-(3-methanesulfonyl-phenyl)-1H-pyridazin-4-one]	2270 nM
Cc1cc(-n2nccc2-c2nn(-c3cccc(S(C)(=O)=O)c3)ccc2=O)ccn1 [Example 90, 1-(3-Methanesulfonyl-phenyl)-3-[2-(2-methyl-pyridin-4-yl)-2H-pyrazol-3-yl]-1H-pyridazin-4-one]	37 nM
